ChEMBL document CHEMBL4033775, “Natural-Products-Inspired Use of the gem-Dimethyl Group in Medicinal Chemistry” (J Med Chem, 2018)

How the values were obtained:
[1] = biological target: Retinoic acid receptor RXR-beta (Homo sapiens, UniProt P28702); experiment: Agonist activity at RXRbeta (unknown origin)
[2] = biological target: Retinoic acid receptor RXR-gamma (Homo sapiens, UniProt P48443); experiment: Agonist activity at RXRgamma (unknown origin)
[3] = biological target: Retinoic acid receptor alpha (Homo sapiens, UniProt P10276); experiment: Agonist activity at RARaplha (unknown origin)
Sequence of Retinoic acid receptor alpha (P10276 whole entry): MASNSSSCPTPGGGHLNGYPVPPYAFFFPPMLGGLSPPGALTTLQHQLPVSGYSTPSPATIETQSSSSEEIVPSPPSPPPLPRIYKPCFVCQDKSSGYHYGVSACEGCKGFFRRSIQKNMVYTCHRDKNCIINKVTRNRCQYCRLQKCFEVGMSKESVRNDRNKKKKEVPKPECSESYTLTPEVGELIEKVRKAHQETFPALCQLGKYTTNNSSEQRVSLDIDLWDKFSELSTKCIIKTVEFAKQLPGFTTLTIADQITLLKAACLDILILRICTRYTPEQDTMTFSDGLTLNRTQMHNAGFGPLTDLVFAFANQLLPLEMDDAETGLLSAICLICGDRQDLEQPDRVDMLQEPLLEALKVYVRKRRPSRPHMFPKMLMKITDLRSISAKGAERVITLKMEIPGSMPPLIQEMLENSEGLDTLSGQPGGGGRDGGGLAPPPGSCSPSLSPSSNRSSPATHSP

[4] = biological target: Retinoic acid receptor beta (Homo sapiens, UniProt P10826); experiment: Agonist activity at RARbeta (unknown origin)
Sequence of Retinoic acid receptor beta (P10826 whole entry): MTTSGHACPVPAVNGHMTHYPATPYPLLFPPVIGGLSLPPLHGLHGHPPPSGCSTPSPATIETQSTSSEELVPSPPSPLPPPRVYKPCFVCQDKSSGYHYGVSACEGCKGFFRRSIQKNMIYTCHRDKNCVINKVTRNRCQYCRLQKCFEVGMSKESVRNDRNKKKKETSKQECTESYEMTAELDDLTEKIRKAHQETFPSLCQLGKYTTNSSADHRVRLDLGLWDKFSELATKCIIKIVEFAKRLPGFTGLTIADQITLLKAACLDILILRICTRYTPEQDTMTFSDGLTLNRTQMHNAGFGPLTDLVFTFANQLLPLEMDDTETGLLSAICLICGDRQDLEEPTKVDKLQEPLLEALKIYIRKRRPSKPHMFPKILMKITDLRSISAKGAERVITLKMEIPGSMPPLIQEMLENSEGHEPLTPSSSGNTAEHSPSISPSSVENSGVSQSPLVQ

[5] = biological target: Retinoic acid receptor gamma (Homo sapiens, UniProt P13631); experiment: Agonist activity at RARgamma (unknown origin)
Sequence of Retinoic acid receptor gamma (P13631 whole entry): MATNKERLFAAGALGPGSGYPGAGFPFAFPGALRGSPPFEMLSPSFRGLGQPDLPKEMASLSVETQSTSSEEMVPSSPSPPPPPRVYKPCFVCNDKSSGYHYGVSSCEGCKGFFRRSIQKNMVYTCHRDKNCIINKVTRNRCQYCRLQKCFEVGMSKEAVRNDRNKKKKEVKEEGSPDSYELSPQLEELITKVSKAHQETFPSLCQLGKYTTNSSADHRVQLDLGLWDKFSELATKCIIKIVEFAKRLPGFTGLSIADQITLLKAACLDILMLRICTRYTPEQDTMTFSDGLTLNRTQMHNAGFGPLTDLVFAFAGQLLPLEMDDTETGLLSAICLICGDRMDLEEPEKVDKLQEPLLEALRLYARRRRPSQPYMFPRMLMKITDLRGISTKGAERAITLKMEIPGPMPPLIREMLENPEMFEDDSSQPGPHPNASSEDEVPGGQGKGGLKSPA

Interstitial collagenase = Interstitial collagenase (Homo sapiens, UniProt P03956); experiment: Inhibition of human interstitial recombinant N-terminal MMP1 expressed in Escherichia coli BL21(DE3) using Mca-Pro-Leu-Gly-Leu-Dpa-Ala-Arg-NH2 as substrate after 20 to 30 mins by spectrofluorimetric analysis
Sequence of Interstitial collagenase (P03956 whole entry): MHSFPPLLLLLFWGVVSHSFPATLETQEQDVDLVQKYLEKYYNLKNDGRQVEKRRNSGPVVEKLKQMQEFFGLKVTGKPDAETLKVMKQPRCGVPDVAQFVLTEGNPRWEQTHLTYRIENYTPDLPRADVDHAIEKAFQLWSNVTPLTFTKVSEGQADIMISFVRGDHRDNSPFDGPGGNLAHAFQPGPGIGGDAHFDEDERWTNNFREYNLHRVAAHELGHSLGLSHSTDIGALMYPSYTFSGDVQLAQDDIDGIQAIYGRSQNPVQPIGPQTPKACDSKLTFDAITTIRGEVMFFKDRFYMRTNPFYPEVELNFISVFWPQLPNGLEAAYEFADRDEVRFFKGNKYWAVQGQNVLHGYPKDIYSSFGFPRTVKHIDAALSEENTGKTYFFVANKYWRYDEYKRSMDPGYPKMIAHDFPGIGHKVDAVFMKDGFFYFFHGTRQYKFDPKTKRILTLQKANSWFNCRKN

Matrilysin = biological target: T1, Matrilysin (Homo sapiens, UniProt P09237); experiment: Inhibition of MMP7 (unknown origin) expressed in Escherichia coli BL21(DE3) using Mca-Pro-Leu-Gly-Leu-Dpa-Ala-Arg-NH2 as substrate after 20 to 30 mins by spectrofluorimetric analysis
T1 sequence (P09237 whole entry): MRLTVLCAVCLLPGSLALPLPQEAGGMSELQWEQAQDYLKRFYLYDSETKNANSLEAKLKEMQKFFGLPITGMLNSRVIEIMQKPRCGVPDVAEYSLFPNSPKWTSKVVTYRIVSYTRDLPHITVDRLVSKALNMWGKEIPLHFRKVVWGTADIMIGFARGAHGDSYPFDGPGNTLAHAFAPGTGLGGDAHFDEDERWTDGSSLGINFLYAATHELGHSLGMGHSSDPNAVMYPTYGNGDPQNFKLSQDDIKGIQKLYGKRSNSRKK

Collagenase 3 = Collagenase 3 (Homo sapiens, UniProt P45452); experiment: Inhibition of MMP13 (unknown origin) expressed in Escherichia coli BL21(DE3) using Mca-Pro-Leu-Gly-Leu-Dpa-Ala-Arg-NH2 as substrate after 20 to 30 mins by spectrofluorimetric analysis
Homo sapiens = species on record: Homo sapiens; experiment: Antagonist activity at nAChR (unknown origin) relative to (+/-)-mecamylamine
[6] = system: Human immunodeficiency virus 1; experiment: Antiviral activity against HIV1; assay type: functional
Rattus norvegicus [7] = experiment: Anti-hypertensive activity in conscious spontaneously hypertensive Okamoto rat assessed as reduction in systolic blood pressure at 0.3 mg/kg, po measured up to 6 hrs post dose relative to control; assay type: functional; design: scale not given: the % may be the effect or the level left
Rattus norvegicus [8] = experiment: Anti-hypertensive activity in conscious spontaneously hypertensive Okamoto rat assessed as reduction in systolic blood pressure at 1 mg/kg, po measured up to 6 hrs post dose relative to control; assay type: functional; design: scale not given: the % may be the effect or the level left
Rattus norvegicus [9] = experiment: Anti-hypertensive activity in conscious spontaneously hypertensive Okamoto rat assessed as reduction in systolic blood pressure at 0.1 mg/kg, po measured up to 6 hrs post dose relative to control; assay type: functional; design: scale not given: the % may be the effect or the level left
[10] = system: Trypanosoma brucei brucei; experiment: Antitrypanosomal activity against Trypanosoma brucei brucei after 72 hrs by resazurin-based fluorescence assay; assay type: functional
[11] = biological target: Sodium/hydrogen exchanger 1 (Homo sapiens, UniProt P19634); experiment: Inhibition of human NHE1 by cell based assay
[12] = Clearance in po dosed rat; assay type: ADME, organism-based; settings: in vivo
[13] = Half life in po dosed rat; assay type: ADME, organism-based; settings: in vivo
1A9 = experiment: Cytotoxicity against human 1A9 cells; assay type: functional, cell-based
Prothrombin [14] = biological target: Prothrombin (Homo sapiens, UniProt P00734); experiment: Inhibition of human plasma thrombin using chromogenix AB as substrate after 30 secs by UV-spectrophotometry
Prothrombin [15] = biological target: Prothrombin (Bos taurus, UniProt P00735); experiment: Inhibition of bovine plasma thrombin using chromogenix AB as substrate after 30 secs by UV-spectrophotometry
Rattus norvegicus [16] = experiment: Anti-hypertensive activity in conscious spontaneously hypertensive Okamoto rat assessed as reduction in systolic blood pressure at 10 mg/kg, po measured up to 6 hrs post dose relative to control; assay type: functional; design: scale not given: the % may be the effect or the level left
MCF7 = experiment: Cytotoxicity against human MCF7 cells assessed as reduction in protein synthesis; assay type: functional, cell-based
HeLa = experiment: Cytotoxicity against human HeLa cells assessed as reduction in protein synthesis at 0.05 uM; assay type: functional
[17] = biological target: Integrin alpha-IIb/beta-3 (Homo sapiens, UniProt P05106+P08514); experiment: Inhibition of human GP2b/3a interaction with human fibrinogen after 3 hrs by ELISA; assay type: protein-complex assay
Sequence of Integrin alpha-IIb/beta-3 (P05106 27-788 limits assumed): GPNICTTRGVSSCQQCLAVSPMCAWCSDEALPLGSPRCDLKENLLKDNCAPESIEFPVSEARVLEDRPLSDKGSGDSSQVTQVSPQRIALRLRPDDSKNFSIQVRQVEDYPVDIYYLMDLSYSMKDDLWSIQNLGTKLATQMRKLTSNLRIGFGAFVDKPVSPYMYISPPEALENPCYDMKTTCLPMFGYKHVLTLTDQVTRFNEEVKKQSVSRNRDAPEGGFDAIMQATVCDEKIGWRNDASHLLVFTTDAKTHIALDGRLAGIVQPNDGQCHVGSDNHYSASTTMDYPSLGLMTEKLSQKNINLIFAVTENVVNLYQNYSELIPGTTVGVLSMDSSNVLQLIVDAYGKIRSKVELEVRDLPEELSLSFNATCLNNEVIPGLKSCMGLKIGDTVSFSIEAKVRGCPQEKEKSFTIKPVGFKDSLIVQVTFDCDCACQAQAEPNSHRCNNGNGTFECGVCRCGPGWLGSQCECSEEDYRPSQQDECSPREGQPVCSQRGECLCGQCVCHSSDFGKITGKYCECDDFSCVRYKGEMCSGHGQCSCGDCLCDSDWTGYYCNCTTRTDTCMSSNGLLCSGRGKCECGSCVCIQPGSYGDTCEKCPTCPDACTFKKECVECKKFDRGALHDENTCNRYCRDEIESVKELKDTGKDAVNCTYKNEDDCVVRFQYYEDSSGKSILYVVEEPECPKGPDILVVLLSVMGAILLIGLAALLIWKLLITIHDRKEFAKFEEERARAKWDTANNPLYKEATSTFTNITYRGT
Sequence of Integrin alpha-IIb/beta-3 (P08514 32-887 limits assumed): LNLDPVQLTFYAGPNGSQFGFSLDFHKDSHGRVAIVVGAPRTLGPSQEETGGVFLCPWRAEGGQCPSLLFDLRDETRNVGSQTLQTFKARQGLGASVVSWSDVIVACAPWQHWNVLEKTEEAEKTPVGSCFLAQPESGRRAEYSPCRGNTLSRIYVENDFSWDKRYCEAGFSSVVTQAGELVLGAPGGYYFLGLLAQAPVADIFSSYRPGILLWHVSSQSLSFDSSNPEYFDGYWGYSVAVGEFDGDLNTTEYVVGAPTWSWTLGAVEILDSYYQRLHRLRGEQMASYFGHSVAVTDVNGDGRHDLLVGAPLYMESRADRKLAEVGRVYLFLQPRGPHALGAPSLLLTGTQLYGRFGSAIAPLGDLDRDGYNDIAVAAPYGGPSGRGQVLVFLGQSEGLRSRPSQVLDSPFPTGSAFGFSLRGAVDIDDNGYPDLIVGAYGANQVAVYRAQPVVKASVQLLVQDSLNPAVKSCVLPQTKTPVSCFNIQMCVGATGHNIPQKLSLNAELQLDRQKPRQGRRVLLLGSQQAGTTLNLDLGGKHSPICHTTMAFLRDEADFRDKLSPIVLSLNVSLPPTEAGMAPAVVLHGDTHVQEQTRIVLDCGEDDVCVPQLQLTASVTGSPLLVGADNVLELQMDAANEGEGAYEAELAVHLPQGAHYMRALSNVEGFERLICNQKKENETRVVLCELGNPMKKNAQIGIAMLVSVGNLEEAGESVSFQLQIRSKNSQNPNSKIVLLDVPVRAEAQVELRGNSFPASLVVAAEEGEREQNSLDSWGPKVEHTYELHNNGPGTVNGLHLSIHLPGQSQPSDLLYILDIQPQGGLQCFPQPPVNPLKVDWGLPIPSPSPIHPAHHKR
Sequence of Integrin alpha-IIb/beta-3 (P08514 891-1039 limits assumed): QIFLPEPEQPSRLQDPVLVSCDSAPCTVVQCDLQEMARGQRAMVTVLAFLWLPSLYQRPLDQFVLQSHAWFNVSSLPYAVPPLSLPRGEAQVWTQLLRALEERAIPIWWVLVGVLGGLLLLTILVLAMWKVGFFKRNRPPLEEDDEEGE

[18] = Half life in Hartley guinea pig at 1 mg/kg, iv measured up to 180 mins post dose by HPLC analysis; assay type: ADME, organism-based, Cavia porcellus; settings: in vivo
[19] = Cmax in Sprague-Dawley rat at 10 mg/kg, po measured up to 120 mins post dose by HPLC analysis; assay type: ADME, organism-based; design: dose 10 mg/kg, route oral; settings: in vivo
[20] = Tmax in Sprague-Dawley rat at 10 mg/kg, po measured up to 120 mins post dose by HPLC analysis; assay type: ADME, organism-based; settings: in vivo
[21] = system: Human immunodeficiency virus; experiment: Antiviral activity against Human immunodeficiency virus assessed as reduction in maturation; assay type: functional; settings: Human immunodeficiency virus 1
Rattus norvegicus [22] = experiment: Anti-hypertensive activity in conscious spontaneously hypertensive Okamoto rat assessed as reduction in systolic blood pressure at 3 mg/kg, po measured up to 6 hrs post dose relative to control; assay type: functional; design: scale not given: the % may be the effect or the level left

Sequence of Retinoic acid receptor RXR-beta (P28702 whole entry): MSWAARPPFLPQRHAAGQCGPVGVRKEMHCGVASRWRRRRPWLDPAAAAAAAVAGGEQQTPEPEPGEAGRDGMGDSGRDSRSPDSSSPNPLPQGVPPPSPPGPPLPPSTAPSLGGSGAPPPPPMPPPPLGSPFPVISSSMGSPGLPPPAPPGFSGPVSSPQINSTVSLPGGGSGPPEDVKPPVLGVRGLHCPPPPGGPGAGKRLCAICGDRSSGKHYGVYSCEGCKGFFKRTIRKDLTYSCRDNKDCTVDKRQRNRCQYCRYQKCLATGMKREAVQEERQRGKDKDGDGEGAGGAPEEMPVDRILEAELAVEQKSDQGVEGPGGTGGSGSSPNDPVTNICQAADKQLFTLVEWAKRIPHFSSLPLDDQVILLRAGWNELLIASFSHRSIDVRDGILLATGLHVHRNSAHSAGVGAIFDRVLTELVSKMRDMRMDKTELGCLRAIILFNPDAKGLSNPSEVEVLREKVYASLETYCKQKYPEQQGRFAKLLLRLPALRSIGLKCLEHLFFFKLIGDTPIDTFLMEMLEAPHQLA
Sequence of Retinoic acid receptor RXR-gamma (P48443 whole entry): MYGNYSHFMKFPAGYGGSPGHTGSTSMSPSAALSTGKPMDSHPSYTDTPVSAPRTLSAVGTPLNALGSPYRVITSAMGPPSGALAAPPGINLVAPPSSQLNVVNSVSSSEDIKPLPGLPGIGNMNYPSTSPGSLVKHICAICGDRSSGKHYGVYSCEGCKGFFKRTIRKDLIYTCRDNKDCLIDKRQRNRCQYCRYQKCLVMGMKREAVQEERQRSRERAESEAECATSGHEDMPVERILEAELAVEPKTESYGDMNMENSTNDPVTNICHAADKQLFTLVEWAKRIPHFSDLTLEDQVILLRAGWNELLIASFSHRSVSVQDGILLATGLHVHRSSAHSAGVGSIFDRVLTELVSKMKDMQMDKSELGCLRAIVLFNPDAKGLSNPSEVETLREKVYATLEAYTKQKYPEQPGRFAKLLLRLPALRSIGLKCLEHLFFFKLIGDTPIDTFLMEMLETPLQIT

C=C(c1ccc(C(=O)O)cc1)c1cc2c(cc1C)CCCC2(C)C
EC50 [1]: 2.4 µM | EC50 [2]: 2.6 µM | EC50 [3]: > 10 µM | EC50 [4]: > 10 µM | EC50 [5]: > 10 µM

COc1ccc(S(=O)(=O)N2CCCSC[C@@H]2C(=O)NO)cc1
IC50 (Interstitial collagenase): 0.064 µM | IC50 (Matrilysin): 1.1 µM | IC50 (Collagenase 3): 0.0019 µM

CNC1C[C@H]2CC[C@H]1C2 (mixture of isomers)
fold change (FC) (Homo sapiens): > 40

CCCc1cc(=O)oc2c3c(c4c(c12)OC(C)(C)C=C4)O[C@H](C)[C@@H](C)[C@@H]3O [CALANOLIDE A]
EC50 [6]: 0.00285 µM

CC1(C)Oc2ccc(C#N)cc2C(N2CCCC2=O)C1O (racemic) [CROMAKALIM]
Activity (Rattus norvegicus [7]): 39% | Activity (Rattus norvegicus [8]): 47% | Activity (Rattus norvegicus [9]): 13%

O=C(Nc1ccc2c(c1)B(O)OC2)c1ccc(F)cc1C(F)(F)F
IC50 [10]: 0.18 µM

CN[C@]1(C)[C@H]2CC[C@@H](C2)C1(C)C
fold change (FC) (Homo sapiens): 1.4

CC1(C)[C@H](C(=O)N=C(N)N)[C@H]1c1cccc2c1CCO2
IC50 [11]: 0.01 µM | CL/F [12]: 74 mL/min/kg | half-life [13]: 3 h

C/C(=C\c1csc(C)n1)[C@@H]1C[C@@H]2O[C@]2(C)CCC[C@H](C)[C@H](O)[C@@H](C)C(=O)C(C)(C)[C@@H](O)CC(=O)N1 [IXABEPILONE]
IC50 (1A9): 0.00665 µM

CC1(C)CNc2c(cccc2S(=O)(=O)N[C@@H](CCCNC(=N)N)C(=O)N2CCC(CCO)CC2)C1
Ki (Prothrombin [14]): 0.03 µM | Ki (Prothrombin [15]): 0.05 µM

CC1Oc2ccc([N+](=O)[O-])cc2[C@@H](N2CCCC2=O)[C@@H]1O (some centres not stated)
Activity (Rattus norvegicus [16]): 34%

COC(=O)C[C@](O)(CCCC(C)(C)O)C(=O)O[C@@H]1C(OC)=C[C@]23CCCN2CCc2cc4c(cc2[C@H]13)OCO4 [OMACETAXINE MEPESUCCINATE]
IC50 (MCF7): 0.00087 µM | inhibition at 0.05 µM (HeLa): 50%

CC1CNc2c(cccc2S(=O)(=O)N[C@@H](CCCNC(=N)N)C(=O)N2CCC(CCO)CC2)C1 (mixture of isomers)
Ki (Prothrombin [14]): 0.04 µM | Ki (Prothrombin [15]): 0.05 µM

N=C(N)NCCC[C@H](NS(=O)(=O)c1cccc2c1NCCC2)C(=O)N1CCC(CCO)CC1
Ki (Prothrombin [15]): 0.5 µM

CCOC(=O)CC1CCN(C(=O)CC(CC)NC(=O)c2ccc(C(=N)N3CCSC3)cc2F)CC1 (racemic)
IC50 [17]: 0.0023 µM | half-life [18]: 1.83 h | Cmax [19]: 1210 ng/mL | Tmax [20]: 0.5 h

C=C(c1ccc(C(=O)O)cc1)c1cc2c(cc1C)C(C)(C)CCC2
EC50 [1]: 0.77 µM | EC50 [2]: 0.6 µM | EC50 [3]: > 10 µM | EC50 [4]: > 10 µM | EC50 [5]: > 10 µM

C=C(C)[C@@H]1CC[C@]2(C(=O)O)CC[C@]3(C)[C@H](CC[C@@H]4[C@@]5(C)CC[C@H](OC(=O)CC(C)(C)C(=O)O)C(C)(C)[C@@H]5CC[C@]43C)[C@@H]12 [BEVIRIMAT]
EC50 [21]: 0.0103 µM

CC1(C)Oc2ccc(C#N)cc2C(N2CCCC2=O)C1O (single isomer, unassigned; (+)) [CROMAKALIM]
Activity (Rattus norvegicus [22]): 14%

CC1(C)Oc2ccc(C#N)cc2C(N2CCCC2=O)C1O (stereo in doubt; 110) [CROMAKALIM]
Activity (Rattus norvegicus [7]): 47% | Activity (Rattus norvegicus [9]): 31%

COc1ccc(S(=O)(=O)N2CCSCC2C(=O)NO)cc1 (configuration not stated)
IC50 (Matrilysin): 2.03 µM

CC(=O)O[C@H]1C(=O)[C@@]2(C)[C@H]([C@H](OC(=O)c3ccccc3)[C@]3(O)C[C@H](OC(=O)[C@H](O)[C@@H](NC(=O)c4ccccc4)c4ccccc4)C(C)=C1C3(C)C)[C@]1(OC(C)=O)CO[C@@H]1C[C@@H]2O [PACLITAXEL]
IC50 (1A9): 0.00371 µM
